Assay results from ChEMBL document CHEMBL5512643, “Structure-based discovery of potent myosin inhibitors to guide antiparasite drug development” (Eur J Med Chem, 2024).
Converted amounts (≈) assume the structure as drawn. The source made the active and inactive calls. The rule behind the calls is not given here.

Experiments:
[1] = Acute toxicity in gold fish infected with Gyrodactylus kobayashii measure upto 48 hrs by microscopic analysis; settings: carassius auratus
[2] = tested on: Gyrodactylus kobayashii; assay: Antiparasitic activity against Gyrodactylus kobayashii infected in gold fish measured upto 48 hrs by stereomicroscope analysis; type: functional, organism-based
[3] = Therapeutic index, ratio of LC50 for acute toxicity in gold fish infected with Gyrodactylus kobayashii to EC50 for antiparasitic activity against Gyrodactylus kobayashii infected in gold fish; settings: goldfish
[4] = Inhibition of wild type Gyrodactylus kobayashii Myosin ATPase activity incubated for 30 mins
[5] = Inhibition of Gyrodactylus kobayashii Myosin N439A mutant ATPase activity incubated for 30 min
[6] = tested on: Gyrodactylus kobayashii; assay: Binding affinity to Gyrodactylus kobayashii Myosin expressed in Escherichia coli BL21 assessed as thermal stabilization at 1 mM at 40 to 50 degreeC by CETSA analysis
[7] = tested on: SARS-CoV-2; assay: Antiviral activity against SARS-CoV-2 infected in African green monkey Vero cells assessed as inhibition of viral replication pretreated with compound for 2 hr followed by viral infection and measured after 48 hrs by indirect immunofluorescence assay; type: functional, organism-based; settings: Severe acute respiratory syndrome coronavirus 2, Vero
[8] = Gyrodactylus kobayashii, 48 h, read-out: EC50

Row | Compound | LC50 at 48 h [1] | EC50 [2, 8] | also measured
1 | CCCCC[C@H](O)/C=C/[C@H]1[C@H](O)CC(=O)[C@@H]1CCCCCCC(=O)O [ALPROSTADIL] | 30.5 µg/mL (≈ 86 µM) | 16.2 µg/mL (≈ 45.8 µM) | 
2 | COc1ccc(CCC(=O)c2c(O)cc(O[C@@H]3O[C@H](CO)[C@@H](O)[C@H](O)[C@H]3O[C@@H]3O[C@@H](C)[C@H](O)[C@@H](O)[C@H]3O)cc2O)cc1O [NEOHESPERIDIN DIHYDROCHALCONE] | 25.5 µg/mL (≈ 41.6 µM) | 13.4 µg/mL (≈ 21.9 µM) | 
3 | C[C@@H]1O[C@@H](Oc2cc(O)c3c(=O)c(O)c(-c4ccc(O)cc4)oc3c2O)[C@H](O)[C@H](O[C@@H]2O[C@H](CO)[C@@H](O)[C@H](O)[C@H]2O)[C@H]1O | 13.2 µg/mL (≈ 21.7 µM) | 11.3 µg/mL (≈ 18.5 µM) | 
4 | O=C1C=CC(=O)c2ccccc21 [NAPHTHOQUINONE] | 0.23 µg/mL (≈ 1.45 µM) | 0.047 µg/mL (≈ 0.297 µM) | selectivity ratio [3]: 4.89
5 | C[C@@H]1O[C@@H](Oc2cc(O)c3c(=O)c(O)c(-c4ccc(O)cc4)oc3c2)[C@H](O)[C@H](O)[C@H]1O [ALPHA-RHAMNOISOROBIN] | 9.3 µg/mL (≈ 21.5 µM) | 8.27 µg/mL (≈ 19.1 µM) | 
6 | CC(C)=CC[C@@H](O)C1=CC(=O)c2c(O)ccc(O)c2C1=O [SHIKONIN] | 1.29 µg/mL (≈ 4.47 µM) | 0.371 µg/mL (≈ 1.29 µM) | selectivity ratio [3]: 3.49; EC50 [2]: 0.37 µg/mL (≈ 1.28 µM); IC50 [4]: 140 µM
7 | O=C1OC[C@H]2O[C@@H](Oc3cc(O)c(C(=O)CCc4ccccc4)c(O)c3)[C@H](O)[C@@H](O)[C@@H]2OC(=O)c2cc(O)c(O)c(O)c2-c2c1cc(O)c(O)c2O [THONNINGIANIN B] | 21.5 µg/mL (≈ 29.8 µM) | 6.31 µg/mL (≈ 8.73 µM) | 
8 | COc1cc(C[C@H]2C(=O)OC[C@@H]2Cc2ccc(OC)c(OC)c2)ccc1O [ARCTIGENIN] | 11.6 µg/mL (≈ 31.2 µM) | 1.85 µg/mL (≈ 4.97 µM) | IC50 [5]: 3210 µM; Activity [6]: Active; IC50 [4]: 677 µM
9 | O=C(O)[C@H]1O[C@@H](Oc2cc3oc(-c4ccc(O)cc4)cc(=O)c3c(O)c2O)[C@H](O)[C@@H](O)[C@@H]1O [SCUTELLARIN] | 13.3 µg/mL (≈ 28.7 µM) | 7.15 µg/mL (≈ 15.5 µM) | 
10 | C#CCC(Cc1cnc2nc(N)nc(N)c2n1)c1ccc(C(=O)N[C@@H](CCC(=O)O)C(=O)O)cc1 (some centres not stated) [PRALATREXATE] |  |  | EC50 [7]: 0.008 µM
11 | O=C(/C=C/c1ccccc1)c1ccccc1 [CHALCONE] | 7.66 µg/mL (≈ 36.8 µM) | 1.08 µg/mL (≈ 5.21 µM) | IC50 [4]: 440 µM
12 | COc1cc(C2Oc3ccc(C4Oc5cc(O)cc(O)c5C(=O)C4O)cc3OC2CO)ccc1O (configuration not stated) | 26.2 µg/mL (≈ 54.4 µM) | 7.53 µg/mL (≈ 15.6 µM) | 
13 | COC(=O)[C@H]1O[C@@H](Oc2cc3oc(-c4ccc(O)cc4)cc(=O)c3c(O)c2O)[C@H](O)[C@@H](O)[C@@H]1O | 11.4 µg/mL (≈ 23.9 µM) | 7.23 µg/mL (≈ 15.2 µM) | 
14 | Cc1c([C@H](C)[C@@H]2NC[C@@H](C)C[C@H]2O)ccc2c1C[C@H]1[C@H]2CC=C2C[C@@H](O[C@@H]3O[C@H](CO)[C@@H](O)[C@H](O)[C@H]3O)CC[C@@]21C | 15.2 µg/mL (≈ 26.7 µM) | 4.58 µg/mL (≈ 8.02 µM) | 
15 | C[C@@H]1O[C@@H](O[C@H]2C(=O)c3c(O)cc(O)cc3O[C@H]2c2ccc(O)c(O)c2)[C@H](O)[C@H](O)[C@H]1O | 26.5 µg/mL (≈ 58.7 µM) | 15.9 µg/mL (≈ 35.3 µM) | LC50 ([1]; 48 h): 24.975 µg/mL (≈ 55.5 µM)
16 | O=C1C=CC(=O)c2c(O)cccc21 [JUGLONE] |  | 0.72 µg/mL (≈ 4.13 µM) | 
17 | CO[C@H]1C[C@H](O[C@H]2CC[C@]3(C)[C@H]4CC[C@]5(C)[C@@H](C6=CC(=O)OC6)CC[C@]5(O)[C@@H]4CC[C@]3(O)C2)O[C@H](C)[C@H]1O[C@@H]1O[C@H](CO)[C@@H](O)[C@H](O)[C@H]1O | 4.12 µg/mL (≈ 5.92 µM) | 3.89 µg/mL (≈ 5.59 µM) | 
18 | O=C1C=C(O)C(=O)c2ccccc21 [LAWSONE] | 10.7 µg/mL (≈ 61.4 µM) | 3.53 µg/mL (≈ 20.3 µM) | selectivity ratio [3]: 3.03
19 | CC1=CC(=O)c2ccccc2C1=O [MENADIONE] | 1.19 µg/mL (≈ 6.93 µM) | 0.341 µg/mL (≈ 1.98 µM) | selectivity ratio [3]: 3.5
20 | O=C1c2ccccc2C(=O)c2c1cc(O[C@@H]1O[C@H](CO[C@@H]3OC[C@@H](O)[C@H](O)[C@H]3O)[C@@H](O)[C@H](O)[C@H]1O)c(CO)c2O [LUCIDIN PRIMEVOROSIDE] | 8.24 µg/mL (≈ 14.6 µM) | 4.15 µg/mL (≈ 7.35 µM) | 
21 | O=c1cc(-c2ccccc2)oc2c([C@@H]3OC[C@H](O)[C@H](O)[C@H]3O)c(O)c([C@@H]3O[C@H](CO)[C@@H](O)[C@H](O)[C@H]3O)c(O)c12 |  | 7.58 µg/mL (≈ 13.8 µM) | 
22 | NC(=O)[C@@H]1CCCN1C(=O)[C@H](Cc1cnc[nH]1)NC(=O)[C@@H]1CCC(=O)N1 [PROTIRELIN] | 16.3 µg/mL (≈ 44.9 µM) | 9.52 µg/mL (≈ 26.3 µM) | 
